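Dose response: 5 concentrations. Exposure: 48 h. Format: 96-well plates. Endpoint: linear interpolation; highest concentration if not reached. GI50 = concentration required for 50% inhibition of growth.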 The source made the active and inactive calls. Cut-off read from the data, not from the text of the source: active = GI50 up to about 1.1 µM and inactive = higher.
How the values were obtained:
Assay in all cases: growth of human tumour cells (NCI), 48 h
EKVX = system: EKVX
SF-539 = system: SF-539
HCT-116 = system: HCT-116
CCRF-CEM = system: CCRF-CEM
SR = system: SR
ACHN = system: ACHN
K562 = system: K562
DMS-273 = system: DMS-273
NCI-H460 = system: NCI-H460
HCT-15 = system: HCT-15
IGROV-1 = system: IGROV-1
NCI-H522 = system: NCI-H522
TK-10 = system: TK-10
COLO 205 = system: COLO 205
SNB-78 = system: SNB-78
LXFL 529 = system: LXFL 529
HT-29 = system: HT-29
NCI-H23 = system: NCI-H23
RXF 631 = system: RXF 631
DLD-1 = system: DLD-1
SF-268 = system: SF-268
A549 = system: A549
OVCAR-3 = system: OVCAR-3
OVCAR-8 = system: OVCAR-8
SF-295 = system: SF-295
HL-60 = system: HL-60
SNB-19 = system: SNB-19
OVCAR-5 = system: OVCAR-5
U-251 = system: U-251
SK-OV-3 = system: SK-OV-3
UO-31 = system: UO-31
UACC-257 = system: UACC-257
LOX IMVI = system: LOX IMVI
KM-20L2 = system: KM-20L2
Malme-3M = system: Malme-3M
HCC 2998 = system: HCC 2998
NCI-H226 = system: NCI-H226
UACC-62 = system: UACC-62
M14 = system: M14
SN12C = system: SN12C
A498 = system: A498
SNB-75 = system: SNB-75
SW-620 = system: SW-620
HOP-62 = system: HOP-62
M19-MEL = system: M19-MEL
SK-MEL-28 = system: SK-MEL-28
KM12 = system: KM12
RPMI-8226 = system: RPMI-8226
HOP-92 = system: HOP-92
MOLT-4 = system: MOLT-4
786-0 = system: 786-0
SK-MEL-5 = system: SK-MEL-5
RXF 393 = system: RXF 393
OVCAR-4 = system: OVCAR-4
DMS-114 = system: DMS-114

Measured: GI50

N#Cc1c(-c2ccco2)cc(-c2ccccc2)nc1O
inactive: EKVX > 100 µM | SF-539 > 100 µM | HCT-116 > 100 µM | CCRF-CEM > 100 µM | SR > 100 µM | ACHN > 100 µM | K562 > 100 µM | DMS-273 > 100 µM | NCI-H460 > 100 µM | IGROV-1 > 100 µM | NCI-H522 > 100 µM | TK-10 > 100 µM | COLO 205 > 100 µM | SNB-78 > 100 µM | LXFL 529 > 100 µM | HT-29 > 100 µM | NCI-H23 > 100 µM | RXF 631 > 100 µM | DLD-1 > 100 µM | SF-268 > 100 µM | A549 > 100 µM | OVCAR-3 > 100 µM | OVCAR-8 > 100 µM | SF-295 > 100 µM | HL-60 > 100 µM | SNB-19 > 100 µM | OVCAR-5 > 100 µM | U-251 > 100 µM | SK-OV-3 > 100 µM | UO-31 > 100 µM | UACC-257 > 100 µM | LOX IMVI > 100 µM | KM-20L2 > 100 µM | Malme-3M > 100 µM | HCC 2998 > 100 µM | NCI-H226 > 100 µM | UACC-62 > 100 µM | M14 > 100 µM | SN12C > 100 µM | A498 > 100 µM | SNB-75 56.4 µM | SW-620 > 100 µM | HOP-62 > 100 µM | M19-MEL > 100 µM | SK-MEL-28 > 100 µM | KM12 > 100 µM | RPMI-8226 > 100 µM | HOP-92 > 100 µM | MOLT-4 > 100 µM | 786-0 > 100 µM | SK-MEL-5 > 100 µM | RXF 393 > 100 µM | OVCAR-4 63.4 µM
> 100 µM: HCT-15

NCC(=O)NC(CCCC(NC(=O)CN)P(=O)(O)O)P(=O)(O)O (centres undefined)
inactive: EKVX > 100 µM | HCT-116 > 100 µM | CCRF-CEM > 100 µM | SR > 100 µM | ACHN > 100 µM | DMS-273 > 100 µM | NCI-H460 > 100 µM | DMS-114 > 100 µM | IGROV-1 > 100 µM | NCI-H522 > 100 µM | TK-10 > 100 µM | SNB-78 > 100 µM | HT-29 > 100 µM | NCI-H23 > 100 µM | RXF 631 > 100 µM | A549 > 100 µM | OVCAR-8 > 100 µM | SF-295 > 100 µM | HL-60 > 100 µM | OVCAR-5 > 100 µM | U-251 > 100 µM | SK-OV-3 > 100 µM | UACC-257 > 100 µM | KM-20L2 > 100 µM | NCI-H226 26 µM | UACC-62 > 100 µM | M14 > 100 µM | A498 > 100 µM | HOP-62 > 100 µM | M19-MEL > 100 µM | SK-MEL-28 > 100 µM | KM12 > 100 µM | HOP-92 > 100 µM | MOLT-4 > 100 µM | RXF 393 > 100 µM
